The source of these data is patent publication US12209087B2, “AKT1 modulators” (Alterome Therapeutics, Inc., priority 2022, dated 2025).

The structures appear in SMILES notation.

T1 sequence (P31749 whole entry E17K): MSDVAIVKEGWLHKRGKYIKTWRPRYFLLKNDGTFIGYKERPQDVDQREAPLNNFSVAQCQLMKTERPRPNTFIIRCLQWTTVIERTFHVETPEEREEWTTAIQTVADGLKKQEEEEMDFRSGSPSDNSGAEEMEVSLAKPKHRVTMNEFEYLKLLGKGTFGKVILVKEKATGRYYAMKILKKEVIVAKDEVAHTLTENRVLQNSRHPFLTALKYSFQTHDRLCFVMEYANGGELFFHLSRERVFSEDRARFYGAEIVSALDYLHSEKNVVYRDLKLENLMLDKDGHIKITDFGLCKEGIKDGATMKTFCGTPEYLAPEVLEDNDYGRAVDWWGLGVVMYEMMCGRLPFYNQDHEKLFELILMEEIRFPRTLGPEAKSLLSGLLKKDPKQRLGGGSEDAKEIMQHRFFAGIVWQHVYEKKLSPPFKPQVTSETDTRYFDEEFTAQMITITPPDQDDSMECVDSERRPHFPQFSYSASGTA

One assay addresses T1, full length AKT E17K (Homo sapiens, UniProt P31749, E17K).
T1 construct: host or cells: HEK-293 (ATCC CRL-1573)
Description: NanoBRET Target Engagement (TE) Assay. It counts as cell-based. The settings on record: competitive displacement of tracer in cells, read-out: AKT1 E17K IC50. An outline of the steps:
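Compound and tracer incubated 2 h before luminescence at donor 450 nm and acceptor 600 nm, with extracellular signal inhibited. EC50 by sigmoidal variable-slope regression.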
For `[2H]c1nn(C)nc1-c1ccc2nc(-c3nccnc3N)n(-c3ccc(CN4CCC(Nc5ccnc(C#N)n5)CC4)cc3)c2n1` [Example 634, 4-((1-(4-(2-(3-Aminopyrazin-2-yl)-5-(2-methyl-2H-1,2,3-triazol-4-yl-5-d)-3H-imidazo[4,5-b]pyridin-3-yl)benzyl)piperidin-4-yl)amino)pyrimidine-2-carbonitrile], the half-maximal inhibitory concentration (IC50) was under 0.015 µM.
On the same count and under the same terms, the figure for `Cn1cnc(-c2ccc3nc(-c4cccnc4N)n(-c4ccc(CN5CCC(Nc6ccnc(C#N)n6)CC5)cc4)c3n2)n1` [Example 559, 4-((1-(4-(2-(2-Aminopyridin-3-yl)-5-(1-methyl-1H-1,2,4-triazol-3-yl)-3H-imidazo[4,5-b]pyridin-3-yl)benzyl)piperidin-4-yl)amino)pyrimidine-2-carbonitrile] is 0.015 to 0.06 µM; for `N#Cc1nccc(N2C[C@H]3CN(Cc4ccc(-n5c(-c6cccnc6N)nc6ccc(-c7ccccc7)nc65)cc4)C[C@H]3C2)n1` [Example 339, 4-((3aR,6aS)-5-(4-(2-(2-aminopyridin-3-yl)-5-phenyl-3H-imidazo[4,5-b]pyridin-3-yl)benzyl)hexahydropyrrolo[3,4-c]pyrrol-2(1H)-yl)pyrimidine-2-carbonitrile] it is 0.015 to 0.06 µM.
As to `N#Cc1nccc(N2CCN(Cc3ccc(-n4c(-c5cccnc5N)nc5ccc(-c6cnccc6C#N)nc54)cc3)CC2)n1` [Example 383, 4-(4-(4-(2-(2-Aminopyridin-3-yl)-5-(4-cyanopyridin-3-yl)-3H-imidazo[4,5-b]pyridin-3-yl)benzyl)piperazin-1-yl)pyrimidine-2-carbonitrile], the IC50 was under 0.015 µM.
Same read-out and setting: then `N#Cc1cccc(-c2ccc3nc(-c4cccnc4N)n(-c4ccc(CN5CCC(Nc6ccnc(C#N)n6)CC5)cc4)c3n2)n1` [Example 428, 4-((1-(4-(2-(2-Aminopyridin-3-yl)-5-(6-cyanopyridin-2-yl)-3H-imidazo[4,5-b]pyridin-3-yl)benzyl)piperidin-4-yl)amino)pyrimidine-2-carbonitrile], with 0.015 to 0.06 µM; and `N#CCn1ncc(-c2ccc3nc(-c4cccnc4N)n(-c4ccc(CN5CCC(Nc6ccnc(C#N)n6)CC5)cc4)c3n2)n1` [Example 626, 4-((1-(4-(2-(2-Aminopyridin-3-yl)-5-(2-(cyanomethyl)-2H-1,2,3-triazol-4-yl)-3H-imidazo[4,5-b]pyridin-3-yl)benzyl)piperidin-4-yl)amino)pyrimidine-2-carbonitrile], with under 0.015 µM; and `N#Cc1nccc(NC2CCC3(CC2)CN(Cc2ccc(-n4c(-c5cccnc5N)nc5ccc(-c6ccc(F)cc6)nc54)cc2)C3)n1` [Example 446, 4-((2-(4-(2-(2-Aminopyridin-3-yl)-5-(4-fluorophenyl)-3H-imidazo[4,5-b]pyridin-3-yl)benzyl)-2-azaspiro[3.5]nonan-7-yl)amino)pyrimidine-2-carbonitrile], with 0.015 to 0.06 µM.
Consider `N#Cc1nccc(NC2CCN(Cc3ccc(-n4c(-c5cccnc5N)nc5ccc(-c6cn(CF)nn6)nc54)cc3)CC2)n1` [Example 619, 4-((1-(4-(2-(2-Aminopyridin-3-yl)-5-(1-(fluoromethyl)-1H-1,2,3-triazol-4-yl)-3H-imidazo[4,5-b]pyridin-3-yl)benzyl)piperidin-4-yl)amino)pyrimidine-2-carbonitrile], for which the IC50 was under 0.015 µM.
Turning to `Cc1cnn(-c2ccc3nc(-c4cccnc4N)n(-c4ccc(CN5CCC(Nc6ccnc(C#N)n6)CC5)cc4)c3n2)n1` [Example 568, 4-((1-(4-(2-(2-Aminopyridin-3-yl)-5-(4-methyl-2H-1,2,3-triazol-2-yl)-3H-imidazo[4,5-b]pyridin-3-yl)benzyl)piperidin-4-yl)amino)pyrimidine-2-carbonitrile], the IC50 was under 0.015 µM.
On the same count and under the same terms, then `N#Cc1nccc(NC2CCN(Cc3ccc(-n4c(-c5cccnc5N)nc5ccc(-c6ccnc(F)c6)nc54)cc3)CC2)n1` [Example 561, 4-((1-(4-(2-(2-Aminopyridin-3-yl)-5-(2-fluoropyridin-4-yl)-3H-imidazo[4,5-b]pyridin-3-yl)benzyl)piperidin-4-yl)amino)pyrimidine-2-carbonitrile], with under 0.015 µM; and `N#Cc1ccc2nc(-c3cccnc3N)n(-c3ccc(CN4CCC(Nc5ccnc(C#N)n5)CC4)cc3)c2n1` [Example 406, 2-(2-Aminopyridin-3-yl)-3-(4-((4-((2-cyanopyrimidin-4-yl)amino)piperidin-1-yl)methyl)phenyl)-3H-imidazo[4,5-b]pyridine-5-carbonitrile], with under 0.015 µM.
`N#Cc1cc(-c2ccc3nc(-c4cccnc4N)n(-c4ccc(CN5CCC(Nc6ccnc(C#N)n6)CC5)cc4)c3n2)ccn1` [Example 429, 4-((1-(4-(2-(2-Aminopyridin-3-yl)-5-(2-cyanopyridin-4-yl)-3H-imidazo[4,5-b]pyridin-3-yl)benzyl)piperidin-4-yl)amino)pyrimidine-2-carbonitrile]: the IC50 was under 0.015 µM.
For `N#Cc1nccc(NC2CCN(Cc3ccc(-n4c(-c5cccnc5N)nc5ccc(C(=O)O)nc54)cc3)CC2)n1` [Example 415, 2-(2-Aminopyridin-3-yl)-3-(4-((4-((2-cyanopyrimidin-4-yl)amino)piperidin-1-yl)methyl)phenyl)-3H-imidazo[4,5-b]pyridine-5-carboxylic acid], the IC50 was 0.6 to 10 µM.
For the molecule `N#Cc1nccc(NC2CCN(Cc3ccc(-n4c(-c5conc5N)nc5ccc(-c6ccc(F)cn6)nc54)cc3)CC2)n1` [Example 622, 4-((1-(4-(2-(3-Aminoisoxazol-4-yl)-5-(5-fluoropyridin-2-yl)-3H-imidazo[4,5-b]pyridin-3-yl)benzyl)piperidin-4-yl)amino)pyrimidine-2-carbonitrile], the IC50 lay in the range of 0.06 to 0.6 µM.

Staying with this assay, now noted: competitive tracer displacement in living cells, read-out: AKT1 E17K IC50.
With `N#Cc1cc(NC2CCN(Cc3ccc(-n4c(-c5cccnc5N)nc5ccc(-c6ccccc6)nc54)cc3)CC2)cnn1` [Example 158, 5-((1-(4-(2-(2-Aminopyridin-3-yl)-5-phenyl-3H-imidazo[4,5-b]pyridin-3-yl)benzyl)piperidin-4-yl)amino)pyridazine-3-carbonitrile], the IC50 lay in the range of 0.015 to 0.06 µM.
Consider `N#Cc1nccc(NC2CCN(Cc3ccc(-n4c(-c5cccnc5N)nc5cccnc54)cc3)CC2)n1` [Example 92, 4-((1-(4-(2-(2-Aminopyridin-3-yl)-3H-imidazo[4,5-b]pyridin-3-yl)benzyl)piperidin-4-yl)amino)pyrimidine-2-carbonitrile], for which the IC50 was 0.015 to 0.06 µM.
For `CC(=O)Nc1cccc(-c2ccc3nc(-c4cccnc4N)n(-c4ccc(CN5CCN(c6cc(C#N)cnn6)CC5)cc4)c3n2)c1` [Example 45, N-(3-(2-(2-Aminopyridin-3-yl)-3-(4-((4-(5-cyanopyridazin-3-yl)piperazin-1-yl)methyl)phenyl)-3H-imidazo[4,5-b]pyridin-5-yl)phenyl)acetamide], the concentration for half-maximal inhibition (IC50) was in the range of 0.06 to 0.6 µM.
Same read-out and setting: the figure for `N#Cc1cc(NC2CCN(Cc3ccc(-n4c(-c5cccnc5N)nc5ccc(-c6ccccc6)nc54)cc3)CC2)ccn1` [Example 85, 4-((1-(4-(2-(2-Aminopyridin-3-yl)-5-phenyl-3H-imidazo[4,5-b]pyridin-3-yl)benzyl)piperidin-4-yl)amino)picolinonitrile] is under 0.015 µM.
Turning to `N#Cc1ccc(C(=O)N2CCN(Cc3ccc(-n4c(-c5cccnc5N)nc5cccnc54)cc3)CC2)nc1` [Example 80, 6-(4-(4-(2-(2-Aminopyridin-3-yl)-3H-imidazo[4,5-b]pyridin-3-yl)benzyl)piperazine-1-carbonyl)nicotinonitrile], the IC50 is 0.6 to 10 µM.
For the molecule `N#Cc1ccnc(NC2CCN(Cc3ccc(-n4c(-c5cccnc5N)nc5ccc(N6CCOCC6)nc54)cc3)CC2)n1` [Example 240, 2-((1-(4-(2-(2-Aminopyridin-3-yl)-5-morpholino-3H-imidazo[4,5-b]pyridin-3-yl)benzyl)piperidin-4-yl)amino)pyrimidine-4-carbonitrile], the 50% inhibitory concentration (IC50) is 0.015 to 0.06 µM.
With `N#Cc1cccc(OC2CCN(Cc3ccc(-n4c(-c5cccnc5N)nc5cc(-c6ccccc6)cnc54)cc3)CC2)n1` [Example 10, 6-((1-(4-(2-(2-Aminopyridin-3-yl)-6-phenyl-3H-imidazo[4,5-b]pyridin-3-yl)benzyl)piperidin-4-yl)oxy)picolinonitrile], the IC50 is 0.6 to 10 µM.
In the case of `N#Cc1cc(N2CCN(Cc3ccc(-n4c(-c5cccnc5N)nc5ccc(-c6ccccc6)nc54)cc3)CC2)ncn1` [Example 78, 6-(4-(4-(2-(2-Aminopyridin-3-yl)-5-phenyl-3H-imidazo[4,5-b]pyridin-3-yl)benzyl)piperazin-1-yl)pyrimidine-4-carbonitrile], the IC50 was under 0.015 µM.
Same read-out and setting: the figure for `[2H]C([2H])([2H])N(C(=O)c1ccnc(C#N)n1)C1CCN(Cc2ccc(-n3c(-c4cccnc4N)nc4ccc(-c5ccccc5)nc43)cc2)CC1` [Example 234, N-(1-(4-(2-(2-aminopyridin-3-yl)-5-phenyl-3H-imidazo[4,5-b]pyridin-3-yl)benzyl)piperidin-4-yl)-2-cyano-N-(methyl-d3)pyrimidine-4-carboxamide] is under 0.015 µM; for `N#Cc1ncnc(NC2CC3(CCN(Cc4ccc(-n5c(-c6cccnc6N)nc6ccc(-c7ccccc7)nc65)cc4)CC3)C2)n1` [Example 248, 4-((7-(4-(2-(2-aminopyridin-3-yl)-5-phenyl-3H-imidazo[4,5-b]pyridin-3-yl)benzyl)-7-azaspiro[3.5]nonan-2-yl)amino)-1,3,5-triazine-2-carbonitrile] it is under 0.015 µM; for `N#Cc1ccnc(NCc2ccc(-n3c(-c4cccnc4N)nc4cccnc43)cc2)c1` [Example 132, 2-((4-(2-(2-Aminopyridin-3-yl)-3H-imidazo[4,5-b]pyridin-3-yl)benzyl)amino)isonicotinonitrile] it is 0.6 to 10 µM.
`N#Cc1nccc(NC2CCN(Cc3ccc(-n4c(-c5cccnc5N)nc5ccc(C(N)=O)nc54)cc3)CC2)n1` [Example 288, 2-(2-aminopyridin-3-yl)-3-(4-((4-((2-cyanopyrimidin-4-yl)amino)piperidin-1-yl)methyl)phenyl)-3H-imidazo[4,5-b]pyridine-5-carboxamide]: the concentration for half-maximal inhibition (IC50) lay within 0.015 to 0.06 µM.
